Patent US20230256120A1, “DIAGNOSTIC AGENT FOR PANCREATIC FUNCTION” (HAMAMATSU PHOTONICS K.K., priority 2020, published 2023)

Tested on: MC-I in the pancreas
Test: PET measurement of [^18F]BCPP-BF accumulation in the pancreas of type II diabetes model rats
Format: in vivo, rat
Conditions: fatty rats versus lean rats; PET measurement method; after 5 weeks of age; FIG. 2(A)
Source text: Male Zucker Leprfa/Leprfa rats (hereinafter also referred to as “fatty rats”) that develop pathological conditions similar to type II diabetes of human adults and male Zucker Leprfa/+ rats (hereinafter also referred to as “lean rats”) as controls thereof were purchased from Charles River Laboratories Japan, Inc., and used for PET measurement at 5, 8, 16, and 26 weeks of age.
The rats were anesthetized with isoflurane and fixed in a gantry of an animal PET camera (SHR-38000, manufactured by Hamamatsu Photonics K.K.). […] After the completion of the PET measurement, a region of interest was set on the pancreas identified from an accumulated PET image 40 to 60 minutes after the administration of D-[^11C]MT, and the amount of [^18F]BCPP-BF accumulated in the region of interest was calculated. Subsequently, the calculated accumulation amount was normalized by the amount of radioactivity administered and the body weight of each individual and defined as an amount (amount (SUV) of radioactivity administered) of [^18F]BCPP-BF accumulated in the pancreas.
The pancreas was excised from each rat immediately after the completion of the PET measurement, and the weight of the excised pancreas was measured. Subsequently, the radioactivity of the excised pancreas was measured using a gamma counter (manufactured by PerkinElmer Inc., 1480 WIZARD). […]

uptake (SUV) of [^18F]BCPP-BF in the pancreas: decreased
SMILES: CC(C)(C)n1ncc(OCc2ccc(OCCCC[18F])nc2)c(Cl)c1=O [[^18F]BCPP-BF]
